Structures are written as SMILES.

For the experiment, the target named is T1, MAGL (Homo sapiens, UniProt Q99685).
T1 sequence (Q99685 1-303): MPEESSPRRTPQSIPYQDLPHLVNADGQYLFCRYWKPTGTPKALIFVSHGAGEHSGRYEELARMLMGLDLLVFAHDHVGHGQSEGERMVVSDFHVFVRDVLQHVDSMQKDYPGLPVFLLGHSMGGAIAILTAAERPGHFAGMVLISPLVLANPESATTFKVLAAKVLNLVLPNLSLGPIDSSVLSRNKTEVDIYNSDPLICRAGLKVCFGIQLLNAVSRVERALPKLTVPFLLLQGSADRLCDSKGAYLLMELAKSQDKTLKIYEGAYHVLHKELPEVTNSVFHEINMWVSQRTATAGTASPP
Kind of experiment: 2-AG assay: MAGL inhibitory activity by hydrolysis of 2-arachidonoylglycerol to arachidonic acid, followed by mass spectrometry. In kind it is biochemical. The conditions noted are these: 8 μM 2-arachidonoylglycerol, 15 min preincubation and 30 min reaction at RT, arachidonic acid/d8-arachidonic acid ratio by MS. The procedure: Compounds of formula (I) were profiled for MAGL inhibitory activity by determining the enzymatic activity by following the hydrolysis of the natural substrate 2-arachidonoylglycerol (2-AG) resulting in arachidonic acid, which can be followed by mass spectrometry. This assay is hereinafter abbreviated “2-AG assay”.
The 2-AG assay was carried out in 384 well assay plates (PP, Greiner Cat #784201) in a total volume of 20 μL. Compound dilutions were made in 100% DMSO (VWR Chemicals 23500.297) in a polypropylene plate in 3-fold dilution steps to give a final concentration range in the assay from 12.5 μM to […]. 0.25 μL compound dilutions (100% DMSO) were added to 9 μL MAGL in assay buffer (50 mM TRIS (GIBCO, 15567-027), 1 mM EDTA (Fluka, 03690-100 mL), 0.01% (v/v) Tween. After shaking, the plate was incubated for 15 min at RT. To start the reaction, 10 μL 2-arachidonoylglycerol in assay buffer was added. The final concentrations in the assay was […] and 8 μM 2-arachidonoylglyerol. After shaking and 30 min incubation at RT, the reaction was quenched by the addition of 40 μL of ACN containing 4 μM of d8-arachidonic acid. The amount of arachidonic acid was traced by an online SPE system (Agilent Rapidfire) coupled to a triple quadrupole mass spectrometer (Agilent 6460). A C18 SPE cartridge (G9205A) was used in an ACN/water liquid setup. The mass spectrometer was operated in negative electrospray mode following the mass transitions 303.1→259.1 for arachidonic acid and 311.1→267.0 for d8-arachidonic acid. The activity of the compounds was calculated based on the ratio of intensities [arachidonic acid/d8-arachidonic acid].
For orientation: IC50 means the point on the concentration scale where inhibition reaches its midpoint. As for `Cc1cccc(Oc2ccc(C3CN(C(=O)N4CC[C@@H]5OCC(=O)N[C@@H]5C4)C3)cc2)n1` [Example 26, (+)-(4aR,8aS)-6-[3-[4-[(6-Methyl-2-pyridyl)oxy]phenyl]azetidine-1-carbonyl]-4,4a,5,7,8,8a-hexahydropyrido[4,3-b][1,4]oxazin-3-one], the concentration for half-maximal inhibition (IC50) amounted to 3.9 nM. Next, `O=C1CO[C@H]2CCN(C(=O)N3CC(c4ccc(Oc5ccccc5Cl)nc4)C3)C[C@H]2N1` [Example 52, (4aR,8aS)-6-(3-(6-(2-Chlorophenoxy)pyridin-3-yl)azetidine-1-carbonyl)hexahydro-2H-pyrido[4,3-b][1,4]oxazin-3(4H)-one]: 1.3 nM; `COc1ccnc(Oc2ccc(C3CN(C(=O)N4CC[C@@H]5OCC(=O)N[C@@H]5C4)C3)cc2)n1` [Example 13, (+)-(4aR,8aS)-6-[3-[4-(4-Methoxypyrimidin-2-yl)oxyphenyl]azetidine-1-carbonyl]-4,4a,5,7,8,8a-hexahydropyrido[4,3-b][1,4]oxazin-3-one]: 12.7 nM. Next, `Cn1ccc(-c2ccc(C3CN(C(=O)N4CC[C@@H]5OCC(=O)N[C@@H]5C4)C3)cc2)n1` [Example 42, (4aR,8aS)-6-[3-[4-(1-Methylpyrazol-3-yl)phenyl]azetidine-1-carbonyl]-4,4a,5,7,8,8a-hexahydropyrido[4,3-b][1,4]oxazin-3-one]: 153 nM; `O=C1CO[C@H]2CCN(C(=O)N3CC(c4ccc(Oc5ccccc5F)cc4)C3)C[C@H]2N1` [Example 18, (+)-(4aR,8aS)-6-[3-[4-(2-fluorophenoxy)phenyl]azetidine-1-carbonyl]-4,4a,5,7,8,8a-hexahydropyrido[4,3-b][1,4]oxazin-3-one]: 0.05 nM. Turning to `Cc1nc(C)c(-c2ccc(C3CN(C(=O)N4CC[C@@H]5OCC(=O)N[C@@H]5C4)C3)cc2)o1` [Example 34, (4aR,8aS)-6-[3-[4-(2,4-Dimethyloxazol-5-yl)phenyl]azetidine-1-carbonyl]-4,4a,5,7,8,8a-hexahydropyrido[4,3-b][1,4]oxazin-3-one], the IC50 came out at 22.9 nM. Next, `Cc1ccnnc1Oc1ccc(C2CN(C(=O)N3CC[C@@H]4OCC(=O)N[C@@H]4C3)C2)cc1` [Example 11, (+)-(4aR,8aS)-6-[3-[4-(4-Methylpyridazin-3-yl)oxyphenyl]azetidine-1-carbonyl]-4,4a,5,7,8,8a-hexahydropyrido[4,3-b][1,4]oxazin-3-one]: 42.9 nM; `O=C1CO[C@H]2CCN(C(=O)N3CC(c4ccc(-c5cnn(CCF)c5)cc4)C3)C[C@H]2N1` [Example 40, (4aR,8aS)-6-[3-[4-[1-(2-Fluoroethyl)pyrazol-4-yl]phenyl]azetidine-1-carbonyl]-4,4a,5,7,8,8a-hexahydropyrido[4,3-b][1,4]oxazin-3-one]: 73.1 nM. Turning to `O=C1CO[C@H]2CCN(C(=O)N3CC(c4ccc(Oc5ccnc(Cl)n5)cc4)C3)C[C@H]2N1` [Example 24, (+)-(4aR,8aS)-6-[3-[4-(2-Chloropyrimidin-4-yl)oxyphenyl]azetidine-1-carbonyl]-4,4a,5,7,8,8a-hexahydropyrido[4,3-b][1,4]oxazin-3-one], the IC50 was 0.04 nM. With `O=C1CO[C@H]2CCN(C(=O)N3CC(c4ccc(-c5ccnc(F)c5)cc4)C3)C[C@H]2N1` [Example 44, (4aR,8aS)-6-[3-[4-(2-Fluoropyridin-4-yl)phenyl]azetidine-1-carbonyl]-4,4a,5,7,8,8a-hexahydropyrido[4,3-b][1,4]oxazin-3-one] the figure was 67.7 nM; with `O=C1CO[C@H]2CCN(C(=O)N3CC(c4ccc(-c5ccc(F)nc5)cc4)C3)C[C@H]2N1` [Example 43, (4aR,8aS)-6-[3-[4-(6-Fluoropyridin-3-yl)phenyl]azetidine-1-carbonyl]-4,4a,5,7,8,8a-hexahydropyrido[4,3-b][1,4]oxazin-3-one], 19.3 nM.
